Measurements reported in US20150266878A1, “NOVEL BI-RING PHENYL-PYRIDINES/PYRAZINES FOR THE TREATMENT OF CANCER” (HOFFMANN-LA ROCHE INC., priority 2012, published 2015).

target: T1, CDK8/Cyclin C (Homo sapiens, UniProt P49336); assay: CDK8/Cyclin C LANCE TR-FRET kinase assay; type: biochemical; conditions: CDK8/Cyclin C 10 nM, ATP 24 μM, Ulight-GS peptide 80 nM, 37° C. 30 mins
T1 construct: purchased Invitrogen PV4402
Description: CDK8/Cyclin C LANCE TR-FRET Kinase Assay:
The biological activity of the compounds of the invention can be determined using the assay described below.
CDK8/Cyclin C protein was obtained from Invitrogen, cat #PV4402. ULight-Glycogen Synthase (Ulight-GS) peptide with sequence PASVPPSPSLSRHSSPHQ(pS)ED, and Europium-anti-phospho Glycogen Synthase (Ser641) [Eu-anti-P-GS (Ser641)] were obtained from Perkin Elmer, cat #TRF0131-M and cat #TRF0220. Adenosine-5′-triphosphate (ATP) was obtained from Invitrogen, cat #PV3227.
A mixture of (1) a compound of formula I, (2) substrate [Ulight-GS peptide (80 nM) and ATP (24 μM)], and (3) CDK8/Cyclin C (10 nM) in reaction buffer (50 mM Hepes, pH7.0, 10 mM MgCl2, 1 mM EGTA, 0.2 mg/mL BSA, 0.8 mM DTT) were incubated at 37° C. for 30 mins. Then, [Eu-anti-P-GS (Ser641)] (1.5 nM) was added. Following incubation at room temperature for 30 mins, the TR-FRET signals were detected using Envision reader (Ex 340 nm, Em 615 nm and 665 nm) from Perkin Elmer. The reactivity in percentage of inhibition or dose response was analyzed with GraphPad Prism 5 (GraphPad Software).

T1 sequence (P49336 whole entry): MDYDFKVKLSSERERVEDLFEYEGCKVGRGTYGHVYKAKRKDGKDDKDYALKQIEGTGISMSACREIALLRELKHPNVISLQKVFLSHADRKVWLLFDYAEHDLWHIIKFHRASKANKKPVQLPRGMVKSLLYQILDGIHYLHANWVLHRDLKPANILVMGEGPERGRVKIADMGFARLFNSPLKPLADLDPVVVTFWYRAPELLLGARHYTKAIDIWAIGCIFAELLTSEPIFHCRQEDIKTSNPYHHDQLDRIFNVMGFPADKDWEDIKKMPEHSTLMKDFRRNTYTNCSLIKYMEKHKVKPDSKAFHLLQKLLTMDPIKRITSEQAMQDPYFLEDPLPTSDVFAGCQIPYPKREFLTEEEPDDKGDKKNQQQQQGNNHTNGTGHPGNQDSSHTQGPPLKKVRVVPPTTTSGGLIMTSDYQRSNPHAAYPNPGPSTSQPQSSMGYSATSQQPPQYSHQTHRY
T1 sequence (P24863 whole entry partner): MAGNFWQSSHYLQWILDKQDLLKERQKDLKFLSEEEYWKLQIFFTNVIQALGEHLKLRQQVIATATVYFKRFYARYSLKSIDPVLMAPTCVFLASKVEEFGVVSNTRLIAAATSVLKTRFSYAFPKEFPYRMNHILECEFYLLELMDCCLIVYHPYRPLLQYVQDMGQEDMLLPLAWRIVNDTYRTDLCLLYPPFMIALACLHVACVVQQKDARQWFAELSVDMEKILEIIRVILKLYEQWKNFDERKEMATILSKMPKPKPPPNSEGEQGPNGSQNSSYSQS

| SMILES | IC50 [nM] |
| --- | --- |
| CC1(C)C(=O)Nc2ccc(-c3cncc(N[C@@H](CO)c4ccccc4)c3)cc21 [Example 2, 5-[5-((R)-2-Hydroxy-1-phenyl-ethylamino)-pyridin-3-yl]-3,3-dimethyl-1,3-dihydro-indol-2-one] | 132 |
| O=C1Cc2cc(-c3cncc(N[C@@H](CO)c4ccccc4Cl)c3)ccc2N1 [Example 3, 5-{5-[(R)-1-(2-Chloro-phenyl)-2-hydroxy-ethylamino]-pyridin-3-yl}-1,3-dihydro-indol-2-one] | 2.1 |
| O=C1Cc2cc(-c3cncc(N[C@H](CO)c4ccccc4Cl)c3)ccc2N1 [Example 4, 5-{5-[(S)-1-(2-Chloro-phenyl)-2-hydroxy-ethylamino]-pyridin-3-yl}-1,3-dihydro-indol-2-one] | 157 |
| O=c1[nH]c2ccc(-c3cncc(N[C@@H](CO)c4ccccc4)c3)cc2[nH]1 [Example 5, 5-[5-((R)-2-Hydroxy-1-phenyl-ethylamino)-pyridin-3-yl]-1,3-dihydro-benzoimidazol-2-one] | 1.1 |
| O=C1Nc2ccc(-c3cncc(N[C@@H](CO)c4ccccc4)c3)cc2C12CC2 [Example 6, (R)-5′-(5-((2-Hydroxy-1-phenylethyl)amino)pyridin-3-yl)-spiro[cyclopropane-1,3′-indolin]-2′-one] | 2.9 |
| O=C1Cc2cc(-c3cncc(N[C@@H](CO)c4ccccc4)c3)cnc2N1 [Example 7, 5-[5-((R)-2-Hydroxy-1-phenyl-ethylamino)-pyridin-3-yl]-1,3-dihydro-pyrrolo[2,3-b]pyridin-2-one] | 315 |
| O=C1Nc2ccc(-c3cncc(N[C@@H](CO)c4ccccc4)c3)cc2C1(F)F [Example 8, 3,3-Difluoro-5-[5-((R)-2-hydroxy-1-phenyl-ethylamino)-pyridin-3-yl]-1,3-dihydro-indol-2-one] | 37.6 |
| O=C1Cc2nc(-c3cncc(N[C@@H](CO)c4ccccc4)c3)ccc2N1 [Example 9, 5-[5-((R)-2-Hydroxy-1-phenyl-ethylamino)-pyridin-3-yl]-1,3-dihydro-pyrrolo[3,2-b]pyridin-2-one] | 81.3 |
| O=C1Cc2cc(-c3cncc(N[C@@H](CO)c4ccccc4)c3)c(F)cc2N1 [Example 10, 6-Fluoro-5-[5-((R)-2-hydroxy-1-phenyl-ethylamino)-pyridin-3-yl]-1,3-dihydro-indol-2-one] | 0.5 |
| O=C1Cc2cc(-c3cncc(N[C@@H](CO)c4ccccc4)c3)cc(F)c2N1 [Example 11, 7-Fluoro-5-[5-((R)-2-hydroxy-1-phenyl-ethylamino)-pyridin-3-yl]-1,3-dihydro-indol-2-one] | 27.8 |
| O=c1[nH]c2ccc(-c3cncc(N[C@@H](CO)c4ccccc4)c3)cc2o1 [Example 12, 6-[5-((R)-2-Hydroxy-1-phenyl-ethylamino)-pyridin-3-yl]-3H-benzooxazol-2-one] | 3.8 |
| O=c1[nH]c2ccc(-c3cncc(N[C@@H](CO)c4ccccc4)c3)cc2s1 [Example 13, 6-[5-((R)-2-Hydroxy-1-phenyl-ethylamino)-pyridin-3-yl]-3H-benzothiazol-2-one] | 7.8 |
| OC[C@H](Nc1cncc(-c2ccc3c(c2)OCO3)c1)c1ccccc1 [Example 14, (R)-2-(5-Benzo[1,3]dioxol-5-yl-pyridin-3-ylamino)-2-phenyl-ethanol] | 46.3 |

Results, then the compound that gave them:

| IC50 [nM] | SMILES |
| --- | --- |
| 350 | OC[C@H](Nc1cncc(-c2ccc3c(c2)OCCO3)c1)c1ccccc1 [Example 15, (R)-2-[5-(2,3-Dihydro-benzo[1,4]dioxin-6-yl)-pyridin-3-ylamino]-2-phenyl-ethanol] |
| 191 | OC[C@H](Nc1cncc(-c2cccc3[nH]ccc23)c1)c1ccccc1 [Example 17, (R)-2-[5-(1H-Indol-4-yl)-pyridin-3-ylamino]-2-phenyl-ethanol] |
| 0.8 | Nc1n[nH]c2ccc(-c3cncc(N[C@@H](CO)c4ccccc4)c3)cc12 [Example 18, (R)-2-[5-(3-Amino-1H-indazol-5-yl)-pyridin-3-ylamino]-2-phenyl-ethanol] |
| 1.8 | OC[C@H](Nc1cncc(-c2ccc3[nH]nc(F)c3c2)c1)c1ccccc1 [Example 19] |
| 0.5 | Cc1n[nH]c2ccc(-c3cncc(N[C@@H](CO)c4ccccc4)c3)cc12 [Example 20, (R)-2-[5-(3-Methyl-1H-indazol-5-yl)-pyridin-3-ylamino]-2-phenyl-ethanol] |
| 1.5 | CCc1n[nH]c2ccc(-c3cncc(N[C@@H](CO)c4ccccc4)c3)cc12 [Example 21, (R)-2-[5-(3-Ethyl-1H-indazol-5-yl)-pyridin-3-ylamino]-2-phenyl-ethanol] |
| 0.5 | CSc1n[nH]c2ccc(-c3cncc(N[C@@H](CO)c4ccccc4)c3)cc12 [Example 22, (R)-2-[5-(3-Methylsulfanyl-1H-indazol-5-yl)-pyridin-3-ylamino]-2-phenyl-ethanol] |
| 3.2 | CS(=O)(=O)c1n[nH]c2ccc(-c3cncc(N[C@@H](CO)c4ccccc4)c3)cc12 [Example 23, (R)-2-[5-(3-Methanesulfonyl-1H-indazol-5-yl)-pyridin-3-ylamino]-2-phenyl-ethanol] |
| 1.1 | OC[C@H](Nc1cncc(-c2cnc3[nH]ncc3c2)c1)c1ccccc1 [Example 24, (R)-2-Phenyl-2-[5-(1H-pyrazolo[3,4-b]pyridin-5-yl)-pyridin-3-ylamino]-ethanol] |
| 0.7 | OC[C@H](Nc1cncc(-c2cc3cn[nH]c3cn2)c1)c1ccccc1 [Example 25, (R)-2-Phenyl-2-[5-(1H-pyrazolo[3,4-c]pyridin-5-yl)-pyridin-3-ylamino]-ethanol] |
| 9.4 | OC[C@H](Nc1cncc(-c2ccc3[nH]nnc3c2)c1)c1ccccc1 [Example 26, (R)-2-[5-(1H-Benzotriazol-5-yl)-pyridin-3-ylamino]-2-phenyl-ethanol] |
| 9.7 | OC[C@H](Nc1cncc(-c2ccc3[nH]ncc3n2)c1)c1ccccc1 [Example 27, (R)-2-Phenyl-2-[5-(1H-pyrazolo[4,3-b]pyridin-5-yl)-pyridin-3-ylamino]-ethanol] |
| 1 | OC[C@H](Nc1cncc(-c2ccc3[nH]nc(Cl)c3c2)c1)c1ccccc1 [Example 28, (R)-2-[5-(3-Chloro-1H-indazol-5-yl)-pyridin-3-ylamino]-2-phenyl-ethanol] |
| 67.2 | NC(=O)C(Nc1cncc(-c2ccc3c(c2)CC(=O)N3)c1)c1ccccc1 (stereo not shown) [Example 29, 2-[5-(2-Oxo-2,3-dihydro-1H-indol-5-yl)-pyridin-3-ylamino]-2-phenyl-acetamide] |
| 22.7 | CC(=O)NC[C@H](Nc1cncc(-c2ccc3c(c2)CC(=O)N3)c1)c1ccccc1 [Example 30, N-{(R)-2-[5-(2-Oxo-2,3-dihydro-1H-indol-5-yl)-pyridin-3-ylamino]-2-phenyl-ethyl}-acetamide] |
| 294 | NC(=O)C(Nc1cncc(-c2ccc3c(c2)CNC3=O)c1)c1ccccc1 (stereo not drawn) [Example 31, 2-[5-(l-Oxo-2,3-dihydro-1H-isoindol-5-yl)-pyridin-3-ylamino]-2-phenyl-acetamide] |
| 813 | CC1(C)C(=O)Nc2ccc(-c3cncc(NC(C(N)=O)c4ccccc4)c3)cc21 (stereo not shown) [Example 32, 2-[5-(3,3-Dimethyl-2-oxo-2,3-dihydro-1H-indol-5-yl)-pyridin-3-ylamino]-2-phenyl-acetamide] |
| 1890 | NC(=O)C(Nc1cncc(-c2ccc3c(c2)CCC(=O)N3)c1)c1ccccc1 (stereo not shown) [Example 33, 2-[5-(2-Oxo-1,2,3,4-tetrahydro-quinolin-6-yl)-pyridin-3-ylamino]-2-phenyl-acetamide] |
